According to publication PMC3598812, “Evaluation of Anti-Hyperalgesic and Analgesic Effects of Two Benzodiazepines in Human Experimental Pain: A Randomized Placebo-Controlled Study” (PLoS ONE, 2013):
Where “and” joins values, the source holds several entries; their conditions need not be identical. Identical values can stand only once. Entries after “also recorded” stand apart in the source; their conditions may differ.

Tests used:
healthy male volunteers [1] = assay: Intramuscular repeated (5 stimuli) electrical stimulation pain threshold; format: in vivo, human
Text: The stimulus burst used for single stimulus was repeated 5 times at 2 Hz, at constant intensity. The current intensity of the 5 stimuli was increased from 1 mA in steps of 0.5 mA until the subjects felt pain during the last 2–3 of the 5 stimuli (indicating temporal summation).
(§1) A needle was placed in the tibialis anterior muscle, 14 cm distal from the caudal end of the patella and 20 mm in depth. The same single and repeated stimulation patterns and the same procedure described for cutaneous stimulation were used.

healthy male volunteers [2] = assay: Area of static hyperalgesia after intradermal capsaicin injection (512 mN von Frey hair); format: in vivo, human; details: for Area of static hyperalgesia: single oral dose (clobazam 20 mg, clonazepam 1 mg, tolterodine 1 mg), mean (SD); for Change in the area of static hyperalgesia between 60 min and the measurement after flumazenil: subgroup analysis (n = 8), pairwise comparisons within each drug
Text: Intradermal injection of capsaicin causes a brief stinging/burning pain at the injection site followed by development of secondary hyperalgesia, i.e. hyperalgesia detected at surrounding (not injected) skin [15], [16]. Secondary hyperalgesia after intradermal capsaicin is the result of sensitization of the central nervous system, which is one of the most relevant aspects of neuroplastic changes. This model was sensitive to the action of GABAergic compounds in animal studies.
The capsaicin solution was prepared by the Hospital Pharmacy and underwent sterile filtration into sterile septum-sealed vials. The sterile solution (1 mg/ml) was placed into sterile syringes and used for intradermal injection at room temperature. The skin temperature was measured using a digital thermometer, and was 32°C+/−1 in all subjects.
Subjects remained semi-supine during the experiment. Before capsaicin injection, the skin of the forearm was cleaned using an antiseptic wipe and allowed to air dry. The injection site was marked midway between the elbow and the wrist. Using a surgical skin marker, 4 lines were drawn through the injection site, so that they intersected the corners of a regular octagon (figure 2). These lines were marked every 0.5 cm from the center to the edges using a predefined grid. […] We determined the area of hyperalgesia by adding the areas of each triangle in which hyperalgesia was recorded.
Using a 1-ml tuberculin syringe fitted with a 27-gauge disposable needle, 100 µl capsaicin were injected […] into the skin, at the intersection of the 4 vectors previously drawn. A white skin elevation appeared during injection ensuring correct injection.
Static mechanical hyperalgesia was judged to be present when the subjects reported that applying a 512 mN von Frey Hair, 5 and 30 minutes after capsaicin injection, elicited pain with an intensity of at least 4 using a numerical rating scale (NRS, whereby 0 = no pain and 10 = worst pain). Only these subjects were included in the study. In order to document pain induction, the subject recorded pain intensity at injection and 5 minutes post-injection using a 10 cm visual analogue pain scale (VAS), whereby 0 = no pain and 10 = worst pain imaginable.
The area of secondary hyperalgesia was assessed using a calibrated 512 mN von Frey hair. The punctuated probe was moved along the 8 radial lines defined above, starting approximately 6 cm away from the site of injection, at each mark in steps of 0.5 cm. The weighted von Frey hair was placed gently on the skin and the load was applied for 2 seconds. The volunteers were asked to report when the pricking sensation changed to a pain sensation. At least 4 seconds elapsed between consecutive stimuli. This procedure was repeated for each vector. The number corresponding to the marker at which sensation changes as described above was noted and the individual numbers were used to calculate the area of hyperalgesia.
The flow of the experiment is illustrated in figure 3. After training, basal values for the pain tests were determined. The study medication was given immediately after the intradermal injection of capsaicin. Thus, basal values were recorded for all tests, except for those related to capsaicin injection. Because of the relatively short duration of hyperalgesia induced by capsaicin, the recordings of basal values before drug administration would yield a too short testing procedure.

healthy male volunteers [3] = assay: Intramuscular single electrical stimulation pain threshold (tibialis anterior); format: in vivo, human; details: for Pain threshold after single intramuscular electrical stimulation: mean (SD)
Method: Electrical stimulation was performed through electrodes placed distal to the lateral malleolus. A 25 ms, train-of-five, 1 ms, square-wave impulse (perceived as one stimulus), was delivered by a computer-controlled constant current stimulator (Digitimer DS7A, Neurospec, Letchworth Garden City, UK). The current intensity was increased from 1 mA in steps of 0.5 mA until a pain sensation was evoked.
as §1

healthy male volunteers [4] = assay: Intramuscular repeated (20 stimuli) electrical stimulation, VAS; format: in vivo, human; design: AUC of VAS during 20 intramuscular electrical stimuli: unit not given beside the values; details: for Maximal VAS during 20 intramuscular electrical stimuli: VAS 0-10; for Maximal VAS during 20 intramuscular electrical stimuli / AUC of VAS during 20 intramuscular electrical stimuli: mean (SD)
Method: The stimulus burst used for single stimulus was repeated for a train of 20 pulses at 2 Hz, at an intensity corresponding to the temporal summation threshold. During this 10 s stimulation, pain intensity was continuously rated by the subject with an electronic VAS, and the area under the curve (AUC) was computed. Additionally, the maximal VAS during stimulation was recorded.
as §1

healthy male volunteers [5] = assay: Cuff algometry (tourniquet cuff on the leg, VAS-time AUC); format: in vivo, human; design: AUC of VAS during cuff algometry: unit not given beside the values; details: for AUC of VAS during cuff algometry: mean (SD)
Text: A tourniquet cuff was applied to the middle of the leg, at the level of the heads of the gastrocnemius and soleus muscle. The cuff was applied at the side contralateral to the side of electrical stimulation in order not to interfere with the positioning of the intramuscular electrodes. During stimulation, the volunteer rated the pain intensity on an electronic VAS scale. The cuff was inflated with compressed air until VAS 6 was reached. The maximum allowed inflating pressure was 200 kPa. The pressure was maintained for 10 min or until the subjects rated the pain as intolerable. The area under the curve VAS-time was computed. For those subjects who felt intolerable pain before 10 min, the time when the cuff was deflated was recorded and VAS 10 was extrapolated until 10 min. Additionally, the maximal VAS during inflation was recorded.

patients / volunteers = details: patients treated for panic disorder; ref Micromedex 2009; cited from earlier work
healthy male volunteers [6] = assay: Pressure pain detection and tolerance thresholds (pressure algometer, 2nd toe); format: in vivo, human; details: mean (SD)
Method: Pain detection and tolerance thresholds were measured with an electronic pressure algometer (Somedic, Hörby, Sweden) applied at the center of the pulp of the 2nd toe. […] The pressure was increased from 0 at a rate of 30 kPa/s to a maximum pressure of 1200 kPa. Pain detection threshold was defined as the point at which the pressure sensation turned to pain. Pain tolerance threshold was defined as the point at which the subject felt the pain as intolerable. If the threshold was not reached at 1200 kPa, this value was considered as threshold. Three assessments were made and the mean of these 3 measurements were used for the data analysis.

[7] = peak value analysis, pairwise comparisons within each drug
[8] = baseline before medication, per drug session
[9] = single oral dose (clobazam 20 mg, clonazepam 1 mg, tolterodine 1 mg), 120 min after medication
[10] = single oral dose (clobazam 20 mg, clonazepam 1 mg, tolterodine 1 mg), after flumazenil 0.2 mg iv
[11] = subgroup analysis (n = 8), pairwise multiple comparisons

Structure (SMILES): O=C1CN=C(c2ccccc2Cl)c2cc([N+](=O)[O-])ccc2N1 [Clonazepam]
- Pain threshold after 5 intramuscular electrical stimuli (healthy male volunteers [1]; baseline before medication, per drug session, mean (SD)): 1.6 (1.1) mA
- Change in pain threshold after 5 intramuscular electrical stimuli between baseline and 120 minutes (healthy male volunteers [1]; main analysis, pairwise multiple comparison): statistically significant increase; also recorded: Significant increase in pain thresholds
- Change in pain detection threshold after 5 intramuscular electrical stimuli from baseline to peak value (healthy male volunteers [1]; [7]): significant increase; also recorded: Consistent for an increase in pain thresholds after clobazam and clonazepam
- Pain threshold after 5 intramuscular electrical stimuli (healthy male volunteers [1]; single oral dose (clobazam 20 mg, clonazepam 1 mg, tolterodine 1 mg), 120 min after medication, mean (SD)): 2.3 (1.6) mA
- Pain threshold after 5 intramuscular electrical stimuli (healthy male volunteers [1]; single oral dose (clobazam 20 mg, clonazepam 1 mg, tolterodine 1 mg), after flumazenil 0.2 mg iv, mean (SD)): 2.9 (2.3) mA
- Pain threshold after 5 intramuscular electrical stimuli (healthy male volunteers [1]; subgroup analysis (n = 8), 120 minutes, mean): 2.93 mA
- Pain threshold after 5 intramuscular electrical stimuli (healthy male volunteers [1]; subgroup analysis (n = 8), after flumazenil administration, mean): 3.58 mA
- Pain threshold after 5 intramuscular electrical stimuli (healthy male volunteers [1]; subgroup analysis (n = 8), baseline, mean): 1.69 mA
- Change in the area of static hyperalgesia over time (healthy male volunteers [2]; main analysis, pairwise multiple comparisons within each drug): no statistically significant increase
- Area of static hyperalgesia (healthy male volunteers [2]; 30 min after medication): 37.9 (13.6) cm^2
- Area of static hyperalgesia (healthy male volunteers [2]; 60 min after medication): 45.6 (15.3) cm^2
- Area of static hyperalgesia (healthy male volunteers [2]; 90 min after medication): 43.4 (14.3) cm^2
- Area of static hyperalgesia (healthy male volunteers [2]; 120 min after medication): 41.9 (11.6) cm^2
- Area of static hyperalgesia (healthy male volunteers [2]; after flumazenil 0.2 mg iv): 39.4 (12.3) cm^2
- Change in the area of static hyperalgesia between 60 min and the measurement after flumazenil (healthy male volunteers [2]): Decrease in the area of hyperalgesia after Clonazepam
- Change in the area of static hyperalgesia between 60 min and the measurement after flumazenil (healthy male volunteers [2]; listed as clonazepam): significantly decreases
- Pain threshold after single intramuscular electrical stimulation (healthy male volunteers [3]; [8]): 1.8 (1.2) mA
- Pain threshold after single intramuscular electrical stimulation (healthy male volunteers [3]; baseline before medication, per drug session, listed as clonazepam): 1.84 mA
- Change in pain threshold after single intramuscular electrical stimulation from baseline to after flumazenil (healthy male volunteers [3]; main analysis, pairwise comparisons within each drug): Significant increase in pain thresholds only for clonazepam
- Change in pain detection threshold from baseline to peak value, intramuscular single electrical stimulation (healthy male volunteers [3]; [7]): significantly increase; also recorded: Significant increase in pain thresholds only for clonazepam in the peak value analysis
- Pain detection threshold, intramuscular single electrical stimulation (healthy male volunteers [3]; peak value analysis, peak value before flumazenil, mean): 11.0
- Pain threshold after single intramuscular electrical stimulation (healthy male volunteers [3]; [9]): 3.0 (2.5) mA
- Pain threshold after single intramuscular electrical stimulation (healthy male volunteers [3]; [10]): 4.1 (3.7) mA
- Pain threshold after single intramuscular electrical stimulation (healthy male volunteers [3]; single oral dose (clobazam 20 mg, clonazepam 1 mg, tolterodine 1 mg), after flumazenil 0.2 mg iv, listed as clonazepam): 4.05 mA
- Maximal VAS during 20 intramuscular electrical stimuli (healthy male volunteers [4]; [8]): 4.3 (1.4)
- Maximal VAS during 20 intramuscular electrical stimuli (healthy male volunteers [4]; [9]): 3.2 (2.4)
- Maximal VAS during 20 intramuscular electrical stimuli (healthy male volunteers [4]; [10]): 2.8 (2.0)
- AUC of VAS during 20 intramuscular electrical stimuli (healthy male volunteers [4]; [8]): 307 (138)
- AUC of VAS during 20 intramuscular electrical stimuli (healthy male volunteers [4]; [9]): 236 (204)
- AUC of VAS during 20 intramuscular electrical stimuli (healthy male volunteers [4]; [10]): 209 (178)
- Maximal VAS during 20 intramuscular electrical stimuli, comparison among drugs (healthy male volunteers [4]; subgroup analysis (n = 8), pairwise comparisons vs tolterodine and clobazam): lower values; also recorded: Significantly lower maximal VAS with clonazepam, compared with tolterodine and clobazam in the subgroup analysis
- AUC of VAS during cuff algometry (healthy male volunteers [5]; [8]): 3420 (689)
- Cuff algometry, overview of peak value or subgroup analysis (healthy male volunteers [5]; overview table, compared to tolterodine): Time factor significant, favouring clobazam and clonazepam compared to tolterodine
- AUC of VAS during cuff algometry (healthy male volunteers [5]; [9]): 3175 (644)
- AUC of VAS during cuff algometry (healthy male volunteers [5]; [10]): 3225 (671)
- AUC of VAS during cuff algometry compared with tolterodine at 120 min (healthy male volunteers [5]; [11]): significantly lower
- Change of AUC of VAS during cuff algometry from baseline at 120 min and after flumazenil (healthy male volunteers [5]; [11]): significantly decreased
- Dizziness, share of patients (patients / volunteers): 8%
- Somnolence, share of patients (patients / volunteers): approximately 37%
- Pressure pain detection threshold (healthy male volunteers [6]; [8]): 416 (80) kPa
- Pressure pain tolerance threshold (healthy male volunteers [6]; [8]): 685 (172) kPa and 749 (242) kPa
- Pressure pain detection threshold (healthy male volunteers [6]; [9]): 383 (100) kPa
- Pressure pain tolerance threshold (healthy male volunteers [6]; [9]): 636 (147) kPa and 712 (262) kPa
- Pressure pain detection threshold (healthy male volunteers [6]; [10]): 389 (112) kPa
- Pressure pain tolerance threshold (healthy male volunteers [6]; [10]): 390.8 (199) kPa and 734.7 (279) kPa
